“Also recorded” adds a separate entry of the source.
Tests used:
MV4-11 = experiment: Cell proliferation, MV4-11; assay type: cell-based; settings: Homo sapiens; MLL-translocated line MV4-11; FIG. 2
SEMK2 = experiment: Cell proliferation, SEMK2; assay type: cell-based; settings: Homo sapiens; MLL-translocated line SEMK2; FIG. 2
THP-1 = experiment: Cell proliferation, THP-1; assay type: cell-based; settings: Homo sapiens; MLL-translocated line THP-1; FIG. 2
Jurkat [1] = experiment: Cell proliferation, Jurkat; assay type: cell-based; settings: Homo sapiens; non-MLL-translocated line Jurkat; FIG. 2
HL-60 = experiment: Cell proliferation, HL-60; assay type: cell-based; settings: Homo sapiens; non-MLL-translocated line HL-60; FIG. 2
[2] = tested on: HOXA7, HOXA9, HOXA10, and MEIS1; experiment: HOX/MEIS1 mRNA expression in NUP98-NSD1 transformed cells; assay type: cell-based, mouse; settings: 10 μM, 7 day treatment; FIG. 5B
From the text: FIG. 5B is a histogram showing mRNA expression of HOXA7, HOXA9, HOXA10, and MEIS1 relative to GAPDH (ddCT).

[3] = tested on: NUP98-NSD1 transformed cells; experiment: Annexin V apoptosis in NUP98-NSD1 transformed cells; assay type: cell-based, mouse; settings: 10 μM, 10 days; compared with MLL-AF9 transformed cells; FIG. 8B
Method: (§1) The percentage of Annexin V positive cells is shown.
(§2) Apoptosis was assessed by staining cells with Annexin V 10 days after treatment. The extent of apoptosis was compared to that found in MLL-AF9 transformed cells treated in a similar fashion.

[4] = tested on: MLL-AF9 transformed cells; experiment: Annexin V apoptosis in MLL-AF9 transformed cells; assay type: cell-based, mouse; settings: 10 μM, 10 days; FIG. 8B
Method: as §1, §2

OCI-AML3 [5] = experiment: Proliferation of OCI-AML3 (NPM1 mutant) cells; assay type: cell-based, human
Method: as §2
Cell numbers were assessed at multiple time points after treatment was initiated. […] Evidence of differentiation was assessed after DOT1L inhibition via characterization of cell surface marker expression—such as CD11b and CD15 expression, both of which are induced upon differentiation of myelomonocytic leukemia cells.
MTT assays were performed on day 11.

[6] = tested on: Npm1^cA/+Rosa^SB/+ AML cells; experiment: Leukemia initiating potential in vivo, mice injected with pre-treated Npm1^cA/+Rosa^SB/+ cells; set-up: species or system mouse
From the text: FIGS. 13A-13C show the effects of DOT1L inhibition on leukemia initiating potential in vivo. […] FIG. 13B indicates differentiation in EPZ00477 treated cells (and not in cells exposed to only DMSO). […] Numbers of white blood cells and platelets are expressed as number of cells per microliter (μL) of blood. Hemoglobin levels are expressed in grams per deciliter (g/dl).
Furthermore, peripheral blood smears stained with Wright-Giemsa stain indicate differentiation in EPZ00477 treated cells (and not in cells exposed to only DMSO) (FIG. 13B).

[7] = tested on: HOXA9, HOXA10, MEIS1, HOXB3, HOXB4 and HOXB5 mRNA; experiment: HOX gene qPCR in Npm1^cA/+Flt3^ITD/+ AML cells; assay type: cell-based, mouse; settings: 10 μM, FIG. 14B
Method: The effect of DOT1L inhibition on the levels of various HOX genes and HOX-associated genes was evaluated using qPCR.

[8] = tested on: MLL-AF9 transformed cells; experiment: Cell cycle arrest and apoptosis of MLL-AF9 transformed cells; assay type: cell-based, murine
other methyltransferases = settings: in words; FIG. 1B; cited from earlier work
Jurkat [9] = settings: Daigle, 2011; cited from earlier work
H3K79me2 = settings: 0.048, 0.195, 0.781, 3.12, and 12.5 μm; FIG. 1A; cited from earlier work
H3K79 methylation = settings: MLL-translocated leukemia cell lines; cited from earlier work
HOXA9 and MEIS1 = settings: cited from earlier work
[10] = tested on: MLL germline leukemia cell lines; settings: cited from earlier work
[11] = tested on: MLL-translocated cell lines; settings: Daigle; cited from earlier work
Kasumi-1 = experiment: Cell proliferation, Kasumi-1 (AML1-ETO)
OCI-AML3 [12] = experiment: Apoptosis and cell cycle in OCI-AML3 cells
[13] = tested on: MLL-translocated cell lines; experiment: Proliferation of MLL-translocated cell lines; settings: versus MLL-germline lines; FIG. 2
OCI-AML3 [14] = experiment: Differentiation marker CD11b in OCI-AML3 cells; settings: 10 μM, days 4, 7, and 10; FIG. 11B
[15] = tested on: Npm1^cA/+Rosa^SB/+ AML cells; experiment: Colony formation of Npm1^cA/+Rosa^SB/+ AML cells; settings: 10 μM; after primary and secondary transplantation; FIG. 12A, B
[16] = tested on: Npm1^cA/+Flt3^ITD/+ AML cells; experiment: Colony formation of Npm1^cA/+Flt3^ITD/+ AML cells; settings: 10 μM, after primary and secondary transplantation, FIG. 12A, B
[17] = tested on: MLL germline leukemia cell lines; experiment: Proliferation of MLL germline leukemia cell lines; settings: 10 μM; cell lines that do not show elevated HOXA gene expression; FIG. 2
[18] = tested on: Npm1^cA/−Flt3^ITD/+ AML cells; experiment: Survival of C57/BL6 mice injected with pre-treated Npm1^cA/−Flt3^ITD/+ cells
[19] = day 19 complete blood counts, FIG. 13C

Structure (SMILES): CC(C)N(CCCNC(=O)Nc1ccc(C(C)(C)C)cc1)C[C@H]1O[C@@H](n2ccc3c(N)ncnc32)[C@H](O)[C@@H]1O [EPZ004777, 1-(3-((((2R,3S,4R,5R)-5-(4-Amino-7H-pyrrolo[2,3-d]pyrimidin-7-yl)-3,4-dihydroxytetrahydrofuran-2-yl)methyl)(isopropyl)amino)propyl)-3-(4-(tert-butyl)phenyl)urea]
- IC50 (MV4-11): 170 nM
- IC50 (SEMK2): 1700 nM
- IC50 (THP-1): 3000 nM
- IC50 (Jurkat [1]): > 50000 nM
- IC50 (HL-60): > 50000 nM
- mRNA expression of HOXA7, HOXA9, HOXA10, and MEIS1 [2]: substantial decrease; also recorded: strong inhibitory effect
- apoptosis (Annexin V staining) [3]: more apoptosis; also recorded: induces apoptosis
- apoptosis (Annexin V staining) [4]: induces apoptosis
- proliferation / cell number versus DMSO (OCI-AML3 [5]; 10 μM, compared with MLL-translocated line (Molm-13), FIG. 7C, 10): as sensitive; also recorded: equally, if not more sensitive; also recorded: dramatically inhibited
- IC50 (OCI-AML3 [5]; Homo sapiens, OCI-AML-3, 264 h, MTT assays on day 11, concentrations up to 10 μM): 150 nM
- survival (Kaplan-Meier) ([6]; cells pre-treated 6 days with 10 μM, FIG. 13A): extended survival time; also recorded: prolonged survival
- peripheral blood smears, Wright-Giemsa stain ([6]; day 19, cells pre-treated 6 days with 10 μM, FIG. 13B): differentiation
- levels of hemoglobin [6, 19]: slight increase
- number of white blood cells [6, 19]: significant reduction
- platelet counts [6, 19]: slight increase
- HOXA9, HOXA10, MEIS1, HOXB3, HOXB4 and HOXB5 mRNA levels [7]: decreased
- HOXA9, HOXA10, MEIS1, HOXB3, HOXB4 and HOXB5 mRNA levels ([7]; listed as EPZ00477): significant decrease
- response to DOT1L inhibition [8]: cell cycle arrest and apoptosis
- specificity for DOT1L / H3K79me as compared to other methyl transferases (other methyltransferases): highly specific; also recorded: remarkable specificity
- growth of MLL-germline Jurkat cells (Jurkat [9]): unaffected
- H3K79me2 histone methylation (H3K79me2): inhibited
- concentration range inhibiting H3K79 methylation (H3K79 methylation): mid-nM range
- MLL fusion driven gene expression, including HOXA9 and MEIS1 (HOXA9 and MEIS1): transcriptional repression; also recorded: dose-dependent inhibition
- anti-proliferative effect ([10]; MLL germline leukemia cell lines): no anti-proliferative effect
- factor by which leukemic cells lacking MLL fusions are less sensitive [10]: approximately 100
- antiproliferative, differentiating, and apoptotic activities toward leukemia cells harboring MLL fusions [11]: highly selective
- proliferation (cell counts) (Kasumi-1; 10 μM, AML1-ETO (Kasumi) cells, FIG. 3B, 7D): not sensitive; also recorded: insensitive
- IC50 (Kasumi-1; Homo sapiens, Kasumi 1, read-out: IC50 for cell proliferation): 33000 nM
- cell cycle status by flow cytometry (OCI-AML3 [12]): Sub G1 accumulation
- apoptotic cells (Annexin V staining) (OCI-AML3 [12]; 10 μM, 4, 7, or 10 days, FIG. 11A): tremendous increase in apoptotic cells; also recorded: apoptosis
- inhibition of proliferation of MLL-translocated cell lines [13]: selectively inhibits
- differentiation, cell surface marker CD11b expression (OCI-AML3 [14]): increased differentiation
- colony formation potential [15]: significant reduction
- colony formation potential [16]: significant reduction; also recorded: reduce the colony formation potential
- colony formation potential ([16]; listed as EPZ00477): significant reduction
- influence on proliferation [17]: does not influence
- day on which animals start dying ([18]; cells treated with 10 μM, FIG. 13 A): 31 days
- survival time ([18]; treatment of the AML cells with the DOT1L inhibitor): prolonged survival time

From patent US11603570B2, “Methods for the detection and treatment of leukemias that are responsive to DOT1L inhibition” (MEMORIAL SLOAN KETTERING CANCER CENTER, priority 2013, dated 2023)
